Assays:
IKK epsilon/TBK1 = biological target: T1, IKK epsilon/TBK1 (Homo sapiens, UniProt Q14164+Q9UHD2); assay: Inhibition of IKKepsilon/TBK1 in human MDB-MB-231 cells transduced with lentiviral vector expressing human IRF3 assessed as decrease in poly(I:C)-stimulated IRF3 phosphorylation at S385/386 residues preincubated for 1 hr followed by poly(I:C) addition and measured after 1 hr; type: cell-based
T1 sequence (Q14164 whole entry): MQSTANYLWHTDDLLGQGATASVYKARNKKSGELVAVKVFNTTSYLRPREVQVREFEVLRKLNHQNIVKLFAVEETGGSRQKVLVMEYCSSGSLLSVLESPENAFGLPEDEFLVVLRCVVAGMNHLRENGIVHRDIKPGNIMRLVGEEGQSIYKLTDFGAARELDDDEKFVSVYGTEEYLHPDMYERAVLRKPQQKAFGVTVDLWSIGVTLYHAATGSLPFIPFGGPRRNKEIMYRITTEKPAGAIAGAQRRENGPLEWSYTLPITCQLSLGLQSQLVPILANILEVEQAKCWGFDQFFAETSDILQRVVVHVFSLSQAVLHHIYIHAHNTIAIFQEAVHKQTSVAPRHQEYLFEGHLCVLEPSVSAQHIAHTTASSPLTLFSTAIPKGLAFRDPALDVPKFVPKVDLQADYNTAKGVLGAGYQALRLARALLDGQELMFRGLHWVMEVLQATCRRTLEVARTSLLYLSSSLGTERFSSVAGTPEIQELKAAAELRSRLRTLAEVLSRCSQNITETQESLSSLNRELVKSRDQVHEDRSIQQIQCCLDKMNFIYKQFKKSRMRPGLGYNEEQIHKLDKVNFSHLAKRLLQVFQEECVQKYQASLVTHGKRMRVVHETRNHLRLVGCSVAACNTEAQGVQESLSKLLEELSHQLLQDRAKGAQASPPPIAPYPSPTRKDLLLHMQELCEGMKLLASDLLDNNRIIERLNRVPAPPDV
T1 sequence (Q9UHD2 whole entry): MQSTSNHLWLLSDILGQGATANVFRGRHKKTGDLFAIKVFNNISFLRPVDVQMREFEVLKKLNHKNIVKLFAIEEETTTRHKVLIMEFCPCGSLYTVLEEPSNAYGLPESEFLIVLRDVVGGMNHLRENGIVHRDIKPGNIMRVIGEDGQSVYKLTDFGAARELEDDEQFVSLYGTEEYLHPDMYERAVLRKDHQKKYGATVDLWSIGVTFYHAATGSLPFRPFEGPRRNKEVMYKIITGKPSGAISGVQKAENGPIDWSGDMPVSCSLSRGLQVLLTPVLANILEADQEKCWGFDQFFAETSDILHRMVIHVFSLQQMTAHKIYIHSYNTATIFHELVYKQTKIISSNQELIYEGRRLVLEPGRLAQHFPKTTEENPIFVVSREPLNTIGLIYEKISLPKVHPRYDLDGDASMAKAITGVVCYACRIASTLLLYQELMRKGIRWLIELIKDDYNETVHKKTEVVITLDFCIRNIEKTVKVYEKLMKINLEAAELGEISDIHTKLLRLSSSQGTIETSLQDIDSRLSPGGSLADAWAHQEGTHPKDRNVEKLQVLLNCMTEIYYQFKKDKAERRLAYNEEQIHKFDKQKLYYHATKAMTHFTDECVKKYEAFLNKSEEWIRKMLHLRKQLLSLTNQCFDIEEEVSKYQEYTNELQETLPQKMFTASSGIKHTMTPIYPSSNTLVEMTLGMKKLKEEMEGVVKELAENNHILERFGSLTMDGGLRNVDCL

ACHN = assay: Antiproliferative activity against human ACHN cells harboring CDKN2A mutation assessed as reduction in cell viability after 96 hrs by CellTiter-Glo luminescence assay; type: functional, cell-based
CDK9/cyclin T1 = CDK9/cyclin T1 (Homo sapiens, UniProt P50750); assay: Inhibition of recombinant full length human His-tagged CDK9/CyclinT1 expressed in baculovirus expression system using biotin-labelled Ttds-YISPLKSPYKISEG peptide as substrate preincubated with enzyme for 15 mins followed by substrate addition and further incubated for 25 mins presence of 10 uM of ATP by TR-FRET assay
[1] = biological target: T2, Inhibitor of nuclear factor kappa-B kinase subunit epsilon (Homo sapiens, UniProt Q14164); assay: Inhibition of recombinant full length human C-terminal GST-tagged IKKepsilon expressed in baculovirus expression system using biotin-labelled Ahx-GDEDFSSFAEPG peptide as substrate preincubated with enzyme for 15 mins followed by substrate addition and further incubated for 30 mins in presence of 10 uM of ATP by TR-FRET assay
T2 sequence (Q14164 whole entry): T1 sequence (Q14164 whole entry)

[2] = biological target: T3, Serine/threonine-protein kinase 17A (Homo sapiens, UniProt Q9UEE5); assay: Inhibition of wild-type human partial length DRAK1 (R32 to E363 residues) expressed in bacterial expression system by Kinomescan method
T3 sequence (Q9UEE5 whole entry): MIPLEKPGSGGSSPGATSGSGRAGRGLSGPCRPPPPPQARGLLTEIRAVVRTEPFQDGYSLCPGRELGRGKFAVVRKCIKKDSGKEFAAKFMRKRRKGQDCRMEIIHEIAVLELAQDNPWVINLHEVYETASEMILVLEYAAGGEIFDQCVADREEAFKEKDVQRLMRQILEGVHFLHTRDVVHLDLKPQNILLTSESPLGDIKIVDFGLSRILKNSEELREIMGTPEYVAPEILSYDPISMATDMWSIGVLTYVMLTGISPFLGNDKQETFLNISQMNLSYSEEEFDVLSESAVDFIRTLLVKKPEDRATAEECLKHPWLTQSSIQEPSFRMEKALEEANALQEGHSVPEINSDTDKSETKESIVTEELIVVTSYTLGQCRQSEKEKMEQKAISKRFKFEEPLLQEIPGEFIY

Sequence of CDK9/cyclin T1 (O60563 whole entry): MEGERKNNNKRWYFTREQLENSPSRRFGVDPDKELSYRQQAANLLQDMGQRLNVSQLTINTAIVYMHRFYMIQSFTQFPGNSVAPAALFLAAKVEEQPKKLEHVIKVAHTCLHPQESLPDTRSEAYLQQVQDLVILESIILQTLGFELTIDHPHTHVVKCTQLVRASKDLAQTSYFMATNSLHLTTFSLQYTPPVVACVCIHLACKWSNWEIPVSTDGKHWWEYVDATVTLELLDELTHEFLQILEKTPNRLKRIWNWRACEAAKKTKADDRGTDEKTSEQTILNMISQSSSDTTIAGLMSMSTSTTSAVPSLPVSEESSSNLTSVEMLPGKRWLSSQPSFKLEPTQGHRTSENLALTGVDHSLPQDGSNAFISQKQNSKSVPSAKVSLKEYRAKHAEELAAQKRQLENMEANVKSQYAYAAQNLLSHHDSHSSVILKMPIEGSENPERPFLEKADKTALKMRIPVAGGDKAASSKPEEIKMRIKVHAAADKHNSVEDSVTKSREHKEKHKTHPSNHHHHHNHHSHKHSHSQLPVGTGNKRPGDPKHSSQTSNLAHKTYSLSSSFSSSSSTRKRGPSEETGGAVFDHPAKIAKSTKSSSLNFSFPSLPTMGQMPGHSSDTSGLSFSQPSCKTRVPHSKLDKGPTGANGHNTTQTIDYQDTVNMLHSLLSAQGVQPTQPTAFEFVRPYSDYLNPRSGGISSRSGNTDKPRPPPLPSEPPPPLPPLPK
Sequence of CDK9/cyclin T1 (P50750 whole entry): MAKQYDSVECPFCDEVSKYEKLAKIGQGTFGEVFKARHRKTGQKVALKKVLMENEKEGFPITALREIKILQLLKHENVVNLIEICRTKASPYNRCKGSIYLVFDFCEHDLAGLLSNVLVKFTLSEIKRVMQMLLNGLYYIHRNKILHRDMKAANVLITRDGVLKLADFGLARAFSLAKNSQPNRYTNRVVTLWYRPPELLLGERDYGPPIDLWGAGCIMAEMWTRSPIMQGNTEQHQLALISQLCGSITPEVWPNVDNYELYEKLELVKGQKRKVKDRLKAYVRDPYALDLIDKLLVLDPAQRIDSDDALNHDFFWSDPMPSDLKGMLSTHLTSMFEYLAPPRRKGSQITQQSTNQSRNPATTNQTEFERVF

CC(C)Oc1cncnc1-c1ccc2nc(Nc3cc([C@@H](C)N4CCN(C(=O)CC(F)(F)F)CC4)ccn3)[nH]c2c1
IC50 (IKK epsilon/TBK1): 119 nM
IC50 (ACHN): 7960 nM
IC50 (CDK9/cyclin T1): 824 nM

CNc1cc(-c2ccc3nc(Nc4cc(CN5CCN(C(=O)CC(F)(F)F)CC5)ccn4)[nH]c3c2)ncn1
IC50 [1]: 10 nM
IC50 (IKK epsilon/TBK1): 1990 nM
IC50 (ACHN): 29800 nM
IC50 [2]: 25 nM

C[C@H](c1ccnc(Nc2nc3ccc(-c4cc(N(C)C)ncn4)cc3[nH]2)c1)N1CCN(C(=O)CC(F)(F)F)CC1 [BAY-985]
IC50 [1]: 2 nM
IC50 (IKK epsilon/TBK1): 74 nM
IC50 (ACHN): 7260 nM
IC50 [2]: 311 nM

C[C@H](c1ccnc(Nc2nc3ccc(-c4cc(OCC5CC5)ncn4)cc3[nH]2)c1)N1CCN(C(=O)CC(F)(F)F)CC1
IC50 [1]: 4 nM
IC50 (IKK epsilon/TBK1): 66 nM
IC50 (ACHN): 3870 nM
IC50 (CDK9/cyclin T1): 16100 nM

O=C(CC(F)(F)F)N1CCN(Cc2ccnc(Nc3nc4ccc(-c5cnn(CC6CC6)c5)cc4[nH]3)c2)CC1
IC50 [1]: 7 nM
IC50 (IKK epsilon/TBK1): 368 nM
IC50 (ACHN): 7900 nM
IC50 (CDK9/cyclin T1): 9190 nM

Cc1noc(-c2ccc3nc(Nc4cc([C@@H](C)N5CCN(C(=O)CC(F)(F)F)CC5)ccn4)[nH]c3c2)n1
IC50 [1]: 37 nM
IC50 (IKK epsilon/TBK1): 1210 nM
IC50 (ACHN): 8980 nM
IC50 (CDK9/cyclin T1): 1520 nM
Kd [2]: 10 nM

Cc1noc(-c2ccc3nc(Nc4cc(CN5CCN(C(=O)CC(F)(F)F)CC5)ccn4)[nH]c3c2)n1
IC50 [1]: 168 nM
IC50 (IKK epsilon/TBK1): 2750 nM
IC50 (ACHN): 9670 nM
IC50 (CDK9/cyclin T1): 455 nM
Kd [2]: 9 nM

COCc1cc(-c2ccc3nc(Nc4cc([C@@H](C)N5CCN(C(=O)CC(F)(F)F)CC5)ccn4)[nH]c3c2)ncn1
IC50 [1]: 2 nM
IC50 (ACHN): 13400 nM
IC50 (CDK9/cyclin T1): 5110 nM
IC50 [2]: 30 nM

C[C@H](c1ccnc(Nc2nc3ccc(-c4cnn(CC5CC5)c4)cc3[nH]2)c1)N1CCN(C(=O)CC(F)(F)F)CC1
IC50 [1]: 6 nM
IC50 (IKK epsilon/TBK1): 131 nM
IC50 (ACHN): 5270 nM
IC50 (CDK9/cyclin T1): > 20000 nM
Kd [2]: 5 nM

CN(C)c1cc(-c2ccc3nc(Nc4cc(CN5CCN(C(=O)CC(F)(F)F)CC5)ccn4)[nH]c3c2)ncn1
IC50 [1]: 10 nM
IC50 (IKK epsilon/TBK1): 213 nM
IC50 (ACHN): 9690 nM
IC50 (CDK9/cyclin T1): 14400 nM
IC50 [2]: 252 nM

Cc1cc(-c2ccc3nc(Nc4cc([C@@H](C)N5CCN(C(=O)CC(F)(F)F)CC5)ccn4)[nH]c3c2)ncn1
IC50 [1]: 4 nM
IC50 (IKK epsilon/TBK1): 140 nM
IC50 (ACHN): 2010 nM
IC50 (CDK9/cyclin T1): 2130 nM
